Test results as given in paper doi:10.1101/2025.07.31.667081v1 (biorxiv, 2025).
Numbering of substitutions follows the chain as printed.

What was measured:
Type in all cases: cell-based
[1] = target: T1, NVL-SNAP (recombinant NVL WT; SNAP-NVL-3xFlag) (Homo sapiens, UniProt O15381); assay: in-cell UV photocrosslinking, click dye, gel fluorescence of purified NVL
T1 sequence (O15381 1-856): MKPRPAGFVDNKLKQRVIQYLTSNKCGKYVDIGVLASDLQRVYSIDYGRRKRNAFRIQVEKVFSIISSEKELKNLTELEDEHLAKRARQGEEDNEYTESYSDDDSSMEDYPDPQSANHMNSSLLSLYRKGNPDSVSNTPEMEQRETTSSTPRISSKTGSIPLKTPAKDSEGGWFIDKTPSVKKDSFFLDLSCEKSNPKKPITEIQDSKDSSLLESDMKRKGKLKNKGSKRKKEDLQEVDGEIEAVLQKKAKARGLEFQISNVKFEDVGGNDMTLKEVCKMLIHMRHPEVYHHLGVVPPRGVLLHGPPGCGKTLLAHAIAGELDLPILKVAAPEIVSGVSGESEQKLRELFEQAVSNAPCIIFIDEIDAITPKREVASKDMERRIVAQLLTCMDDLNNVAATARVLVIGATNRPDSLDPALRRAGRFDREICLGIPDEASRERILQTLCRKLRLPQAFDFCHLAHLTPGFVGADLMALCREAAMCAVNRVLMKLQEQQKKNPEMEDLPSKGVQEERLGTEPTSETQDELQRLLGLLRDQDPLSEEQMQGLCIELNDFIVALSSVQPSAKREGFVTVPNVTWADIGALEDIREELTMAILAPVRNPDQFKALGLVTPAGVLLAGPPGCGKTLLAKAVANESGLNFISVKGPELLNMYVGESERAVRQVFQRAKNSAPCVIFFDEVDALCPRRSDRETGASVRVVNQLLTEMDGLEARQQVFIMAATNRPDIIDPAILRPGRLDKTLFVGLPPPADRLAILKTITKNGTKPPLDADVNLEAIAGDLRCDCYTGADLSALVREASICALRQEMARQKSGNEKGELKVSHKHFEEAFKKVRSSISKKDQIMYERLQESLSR

[2] = target: T2, NVL-SNAP (recombinant NVL WT; SNAP-NVL-3xFlag) (Homo sapiens, UniProt O15381, R403W); assay: as above
T2 sequence (O15381 1-856 R403W): T1 sequence (O15381 1-856) with R403W

[3] = target: T1, NVL-SNAP (recombinant NVL WT; SNAP-NVL-3xFlag); assay: competition of MM514 photocrosslinking to NVL-SNAP

EC50 [1] | EC50 [2] | EC50 [3] | Structure (SMILES)
490 nM | > 17000 nM | – | C#CCOCCN1C(=O)c2ccccc2Sc2cc(NC(=O)c3ccc(N=[N+]=[N-])cc3)ccc21 [MM514, 4-Azido-N-(11-oxo-10-(2-(prop-2-yn-1-yloxy)ethyl)-10,11-dihydro-dibenzo[b,f][1,4]thiazepin-7-yl)benzamide]
– | – | 26000 nM | COCCN1C(=O)c2ccccc2Sc2cc(NC(=O)c3ccccc3OC)ccc21 [MM691, 2-Methoxy-N-(10-(2-methoxyethyl)-11-oxo-10,11-dihydrodibenzo[b,f][1,4]thiazepin-7-yl)benzamide]
– | – | 2600 nM | COCCN1C(=O)c2ccccc2Sc2cc(NC(=O)c3ccc(OC)cc3)ccc21 [MM524, 4-Methoxy-N-(10-(2-methoxyethyl)-11-oxo-10,11-dihydrodibenzo[b,f][1,4]thiazepin-7-yl)benzamide]
